Results from patent US10934304B2, “Spirocyclic compounds” (Recurium IP Holdings, LLC, priority 2016, dated 2021).

Tests used:
ERK2 = ERK2 (Homo sapiens (Human), UniProt P28482); test: Active ERK1 and ERK2 Kinase Assay (Mobility Shift Assay); format: biochemical; conditions: activated ERK2, Mobility Shift Assay
Method: Activated ERK1 and ERK2 activity was determined in a Mobility Shift Assay (MSA) format as follows: Compound and kinase solution were prepared with assay buffer (20 mM HEPES, 0.01% Triton X-100, 2 mM DTT, pH7.5) and mixed and incubated in for 30 mins at rt. ERK1 & ERK2 were then activated by the addition of F1-Substrate, ATP and metal solution and incubated for 1 h at rt. After 1 h, the reaction was terminated by the addition of […] of Termination Buffer (QuickScout Screening Assist MSA; Carna Biosciences) to the well. The reaction mixture was applied to LabChip™ system (PerkinElmer), and the product and substrate peptide peaks were separated, analyzed and quantitated. The kinase reaction is evaluated by the product ratio calculated from peak heights of product (P) and substrate(S) peptides (P/(P+S)).

A375 (melanoma) cells = test: Proliferation Assay (CellTiter-Glo); format: cell-based; conditions: 3 days incubation, CellTiter-Glo luminescence
Method: A375 (melanoma), Colo-205 (colon cancer), Miapaca (pancreatic), HPAFII (pancreatic), sNF02.0 (neurofibromatosis type 1), sNF96.2 (neurofibromatosis type 1) and 8505 (Thyroid) cells were grown and maintained in RPMI-1640 medium containing 100 U/mL penicillin-streptomycin and 10% fetal bovine serum. Cells were in growth medium in 96-well opaque-walled clear bottom plates and incubated in the CO2 incubator overnight before treatment. Cells were treated with compounds diluted in DMSO and a 10 point 3-fold serial dilutions were done. Plates were placed in 37° C., 5% CO2 to incubate for 3 days. Before they were developed by adding 100 μL of CellTiter-Glo reagent (Promega) to the assay plate, plates were shaken briefly for 2 mins and allowed to incubate at room temperature for 10 mins. The bottom of the plates was pasted with white back seal and luminescence was recorded with Flexstation3 with setting of luminescence, integration time 500 ms.
Compounds of Formula (I), (II) and (III) are active in this assay as noted in Table 2.

Sequence of ERK2 (P28482 whole entry): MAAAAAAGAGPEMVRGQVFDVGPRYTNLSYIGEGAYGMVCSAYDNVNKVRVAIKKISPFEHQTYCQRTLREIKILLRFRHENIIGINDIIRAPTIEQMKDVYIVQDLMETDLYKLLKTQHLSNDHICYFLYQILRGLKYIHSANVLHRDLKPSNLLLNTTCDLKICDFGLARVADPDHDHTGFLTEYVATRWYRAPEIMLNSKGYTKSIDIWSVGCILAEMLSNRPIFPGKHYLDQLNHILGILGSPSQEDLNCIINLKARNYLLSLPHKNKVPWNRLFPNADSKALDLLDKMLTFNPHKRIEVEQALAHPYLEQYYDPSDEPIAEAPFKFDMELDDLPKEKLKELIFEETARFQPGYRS

Cn1cnc(-c2ccc(C3=CCN(C(=O)CN4CC[C@]5(CCN(c6ccc7[nH]nc(-c8ccc(F)cn8)c7c6)C5=O)C4)CC3)s2)n1 [Example 55]
IC50 (ERK2): ≤ 50 nM | IC50 (A375 (melanoma) cells): ≤ 500 nM

COc1ccc(-c2n[nH]c3ccc(N4CC[C@]5(CCN(CC(=O)N6CC=C(c7ccc(-c8ncn(C)n8)cc7)CC6)C5)C4=O)cc23)cn1 [Example 2]
IC50 (ERK2): ≤ 50 nM | IC50 (A375 (melanoma) cells; Homo sapiens, A-375, 72 h): ≤ 500 nM

Cn1nc(-c2ccc(C3=CCN(C(=O)CN4CC[C@]5(CCN(c6ccc7[nH]nc(-c8ccc(C#N)c(Cl)c8)c7c6)C5=O)C4)CC3)cc2)oc1=O [Example 14]
IC50 (ERK2): ≤ 50 nM | IC50 (A375 (melanoma) cells): ≤ 500 nM

CC(C)Oc1ccc(-c2n[nH]c3ccc(N4CC[C@]5(CCN(CC(=O)N6CC=C(c7ncc(-c8ncn(C)n8)s7)CC6)C5)C4=O)nc23)cn1 [Example 25]
IC50 (ERK2): ≤ 50 nM | IC50 (A375 (melanoma) cells): ≤ 500 nM

Cn1cnc(-c2ccc(C3=CCN(C(=O)CN4CC[C@]5(CCN(c6ccc7[nH]nc(-c8cnc(C#N)c(Cl)c8)c7c6)C5=O)C4)CC3)cc2)n1 [Example 9]
IC50 (ERK2): ≤ 50 nM | IC50 (A375 (melanoma) cells; Homo sapiens, A-375, 72 h): ≤ 500 nM

Cn1cnc(-c2ccc(C3=CCN(C(=O)CN4CCC5(CCN(c6ccc7[nH]nc(N8CCOCC8)c7n6)C5=O)C4)CC3)cc2)n1 (centres unmarked) [Example 49]
IC50 (ERK2): ≤ 50 nM | IC50 (A375 (melanoma) cells): ≤ 500 nM

CC(C)Oc1ccc(-c2n[nH]c3ccc(N4CC[C@]5(CCN(CC(=O)N6CC=C(c7ccc(-c8ncn(CCO)n8)cc7)CC6)C5)C4=O)nc23)cn1 [Example 89]
IC50 (ERK2): ≤ 50 nM | IC50 (A375 (melanoma) cells): ≤ 500 nM

Cn1cnc(-c2ccc(C3=CCN(C(=O)CN4CC[C@]5(CCN(c6ccc7[nH]nc(C89CC(C#N)(C8)C9)c7c6)C5=O)C4)CC3)cc2)n1 [Example 73, (S)-3-(5-(7-(2-(4-(4-(1-Methyl-1H-1,2,4-triazol-3-yl)phenyl)-5,6-dihydropyridin-1(2H)-yl)-2-oxoethyl)-1-oxo-2,7-diazaspiro[4.4]nonan-2-yl)-1H-indazol-3-yl)bicyclo[1.1.1]pentane-1-carbonitrile]
IC50 (ERK2): ≤ 50 nM | IC50 (A375 (melanoma) cells; Homo sapiens, A-375, 72 h): 500 to 1000 nM

Cn1cnc(-c2ccc(C3=CCN(C(=O)CN4CC[C@]5(CCN(c6ccc7[nH]nc(C8CCOCC8)c7n6)C5=O)C4)CC3)s2)n1 [Example 64]
IC50 (ERK2): ≤ 50 nM | IC50 (A375 (melanoma) cells): ≤ 500 nM

CC(C)Oc1ccc(-c2n[nH]c3ccc(N4CC[C@]5(CCN(CC(=O)N6CCC(c7ccc(-c8ncn(C)n8)cc7)CC6)C5)C4=O)nc23)cn1 [Example 71]
IC50 (ERK2): ≤ 50 nM | IC50 (A375 (melanoma) cells): 500 to 1000 nM

CCOc1ccc(-c2n[nH]c3ccc(N4CC[C@]5(CCN(CC(=O)N6CC=C(c7ccc(-c8ncn(C)n8)cc7)CC6)C5)C4=O)nc23)cn1 [Example 81]
IC50 (ERK2): ≤ 50 nM | IC50 (A375 (melanoma) cells): ≤ 500 nM

Cn1cnc(-c2ccc(N3CCN(C(=O)CN4CC[C@]5(CCN(c6ccc7[nH]nc(-c8ccc(F)cn8)c7c6)C5=O)C4)CC3)cc2)n1 [Example 56]
IC50 (ERK2): ≤ 50 nM | IC50 (A375 (melanoma) cells): ≤ 500 nM

Cn1cnc(-c2ccc(C3=CCN(C(=O)CN4CC[C@]5(CCN(c6ccc7[nH]nc(-c8ccc(Cl)cc8)c7n6)C5=O)C4)CC3)cc2)n1 [Example 68]
IC50 (ERK2): ≤ 50 nM | IC50 (A375 (melanoma) cells): ≤ 500 nM

Cn1cnc(-c2ccc(N3CCN(C(=O)CN4CC[C@]5(CCN(c6ccc7[nH]nc(-c8ccc(F)cc8)c7n6)C5=O)C4)CC3)nc2)n1 [Example 45]
IC50 (ERK2): ≤ 50 nM | IC50 (A375 (melanoma) cells): ≤ 500 nM

CC(C)n1cc(-c2n[nH]c3ccc(N4CC[C@]5(CCN(CC(=O)N6CCN(c7ccc(-c8ncn(C)n8)cc7)CC6)C5)C4=O)nc23)cn1 [Example 41]
IC50 (ERK2): ≤ 50 nM | IC50 (A375 (melanoma) cells): ≤ 500 nM

CC1CC(c2n[nH]c3ccc(N4CCC5(CCN(CC(=O)N6CC=C(c7ccc(-c8nn(C)c(=O)o8)cc7)CC6)C5)C4=O)nc23)CC(C)O1 (centres unmarked) [Example 52]
IC50 (ERK2): ≤ 50 nM | IC50 (A375 (melanoma) cells): ≤ 500 nM

Cn1ccc(-c2n[nH]c3ccc(N4CC[C@]5(CCN(CC(=O)N6CC=C(c7ccc(-c8ncn(C)n8)cc7)CC6)C5)C4=O)nc23)n1 [Example 39]
IC50 (ERK2): 50 to 250 nM | IC50 (A375 (melanoma) cells; Homo sapiens, A-375, 72 h): ≥ 1000 nM

Cc1ccc(-c2n[nH]c3ccc(N4CC[C@]5(CCN(CC(=O)N6CCC(c7ccc(-c8ncn(C)n8)cc7)CC6)C5)C4=O)nc23)cn1 [Example 79]
IC50 (ERK2): ≤ 50 nM | IC50 (A375 (melanoma) cells): ≤ 500 nM

Cn1cnc(-c2ccc(C3=CCN(C(=O)CN4CC[C@]5(CCN(c6ccc7[nH]nc(C8CCN(CC(F)(F)F)CC8)c7c6)C5=O)C4)CC3)cc2)n1 [Example 12, (S)-7-(2-(4-(4-(1-Methyl-1H-1,2,4-triazol-3-yl)phenyl)-5,6-dihydropyridin-1(2H)-yl)-2-oxoethyl)-2-(3-(1-(2,2,2-trifluoroethyl)piperidin-4-yl)-1H-indazol-5-yl)-2,7-diazaspiro[4.4]nonan-1-one]
IC50 (ERK2): ≤ 50 nM | IC50 (A375 (melanoma) cells; Homo sapiens, A-375, 72 h): 500 to 1000 nM
